According to US9328173B2, “Multifunctional antibodies binding to EGFR and MET” (Eli Lilly and Company, priority 2013, dated 2016):
Like-named read-outs stand apart in the source and are kept apart here.

Legend:
[1] = test system: HCC827 cells; assay: Restoring HCC827 sensitivity to erlotinib in the presence of HGF; details: Homo sapiens, HCC827, 72 h, read-out: AVG = average % of cell viability
Method: Briefly, 3×10^3 cells/well in 100 μL culture medium may be plated in 96 well plates and incubated overnight at 37° C., 5% CO2. […] Cell viability may be determined by measuring luminescence.

[2] = test system: MKN45 cells; assay: MKN45 apoptosis assay (caspase-3/7 positive cells, […]); format: cell-based, human; details: antibody 100 nM, untreated = 100.00
Method: The gastric cancer cell line MKN45 can be used to assay apoptosis induced by antibodies. Briefly, 3×10^3 cells/well in 80 μL culture medium may be plated in 96 well plates and incubated overnight at 37° C., 5% CO2. CellEvent™ reagent (Life Technologies, Carlsbad, Calif.) may be diluted in cell culture medium and added at 10 μL per well. […] The caspase-3/7 positive cells may be measured in real-time by […]™ Kinetic Imaging System (Essen Bioscience, Ann Arbor, Mich.) with 3 hours intervals at 37° C., 5% CO2 for a total of 120 hours.

[3] = test system: HT-29 cells; assay: Restoring HT-29 sensitivity to PLX4032 in the presence of HGF and EGF; format: cell-based; details: Homo sapiens, HT-29, 120 h; read-out: AVG = average % of cell viability
Method: The colon cancer cell line HT-29 has a B-Raf mutation and is sensitive to the B-Raf inhibitor PLX4032. […] Briefly, 3×10^3 cells/well in 100 μL culture medium may be plated in 96 well plates and incubated overnight at 37° C., 5% CO2. […] At the end of an additional 5 days of cell growth, plates may be equilibrated to room temperature for 30 minutes and 100 μL per well of CellTiter-Glo® reagent (Promega Corp.) may be added. Cell viability can be determined by measuring luminescence.

[4] = test system: FaDu cells; assay: Restoring FaDu sensitivity to lapatinib in the presence of HGF or EGF; format: cell-based; details: Homo sapiens, antibodies 50 nM, read-out: % of cell viability; for viability at 0.001 µM: lapatinib 0.001 μM; for viability at 0.003 µM: lapatinib 0.003 μM; for viability at 0.01 µM: lapatinib 0.01 μM; for viability at 0.03 µM: lapatinib 0.03 μM; for viability at 0.1 µM: lapatinib 0.1 μM; for viability at 0.3 µM: lapatinib 0.3 μM; for viability at 1 µM: lapatinib 1 μM; for viability at 3 µM: lapatinib 3 μM; for viability at 10 µM: lapatinib 10 μM
Method: Briefly, 3×10^3 cells/well in 100 μL culture medium may be plated in 96 well plates and incubated overnight at 37° C., 5% CO2. […] At the end of an additional 5 days of cell growth, plates may be equilibrated to room temperature for 30 minutes and 100 μL per well of CellTiter-Glo® reagent (Promega Corp.) may be added. Cell viability can be determined by measuring luminescence.

[5] = test system: ERK phosphorylation; details: in vitro ERK phosphorylation assay; cited from earlier work

In the case of `C#Cc1cccc(Nc2ncnc3cc(OCCOC)c(OCCOC)cc23)c1` [Erlotinib, erlotinib], the viability at 1 µM [1] is reported as 18%.

For “anti-MET Ab: parental anti-MET antibody C8-H241 (human IgG4 subtype), described in WO 2010/059654 [reference compound]”, the “AVG = average % increase of cell apoptosis” value (shortened to “AVG = average % increase”) ([2]; 24 hr) was 100.35%, the “AVG = average % increase” value ([2]; 48 hr) was 222.81% and the “AVG = average % increase” value ([2]; 72 hr) was 275.40%. For the same molecule, the “AVG = average % increase” value ([2]; 96 hr) was 286.63% and the “AVG = average % increase” value ([2]; 120 hr) was 353.84%.

Work on `CCCS(=O)(=O)Nc1ccc(F)c(C(=O)c2c[nH]c3ncc(-c4ccc(Cl)cc4)cc23)c1F` [PLX, PLX4032] yielded a viability at 0.00032 µM [3] of 101%, a viability at 0.0016 µM [3] of 99.9% and a viability at 0.008 µM [3] of 97.6%. For the same molecule, the viability at 0.04 µM [3] was 83.1%, the viability at 0.2 µM [3] was 56.7% and the viability at 1 µM [3] was 33.7%.

For `CS(=O)(=O)CCNCc1ccc(-c2ccc3ncnc(Nc4ccc(OCc5cccc(F)c5)c(Cl)c4)c3c2)o1` [lapatinib], the viability at 0.001 µM ([4]; E = EGF (50 ng/ml)) was 109%, the viability at 0.001 µM ([4]; H = HGF (50 ng/ml)) was 99.5% and the viability at 0.003 µM ([4]; E = EGF (50 ng/ml)) was 109%. It also gave a viability at 0.003 µM ([4]; H = HGF (50 ng/ml)) of 101%, a viability at 0.01 µM ([4]; E = EGF (50 ng/ml)) of 78.7% and a viability at 0.01 µM ([4]; H = HGF (50 ng/ml)) of 95.8%. The viability at 0.03 µM ([4]; E = EGF (50 ng/ml)) was 69.4%, the viability at 0.03 µM ([4]; H = HGF (50 ng/ml)) was 68.8% and the viability at 0.1 µM ([4]; E = EGF (50 ng/ml)) was 45.6%. The viability at 0.1 µM ([4]; H = HGF (50 ng/ml)) was 45.4%, the viability at 0.3 µM ([4]; E = EGF (50 ng/ml)) was 32.5% and the viability at 0.3 µM ([4]; H = HGF (50 ng/ml)) was 32.5%. It also gave a viability at 1 µM ([4]; E = EGF (50 ng/ml)) of 26.3%, a viability at 1 µM ([4]; H = HGF (50 ng/ml)) of 26.9% and a viability at 3 µM ([4]; E = EGF (50 ng/ml)) of 19%. The viability at 3 µM ([4]; H = HGF (50 ng/ml)) was 18.5%, the viability at 10 µM ([4]; E = EGF (50 ng/ml)) was 19.6% and the viability at 10 µM ([4]; H = HGF (50 ng/ml)) was 17.1%.

B1: EM1-mAb: bispecific antibody targeting both EGFR and cMET made by controlled Fab Arm Exchange (antibody, chains of the INN, looked up, V domains shown)
VH: QVQLVESGGGVVQPGRSLRLSCAASGFTFSTYGMHWVRQAPGKGLEWVAVIWDDGSYKYYGDSVKGRFTISRDNSKNTLYLQMNSLRAEDTAVYYCARDGITMVRGVMKDYFDYWGQGTLVTVSS
VL: AIQLTQSPSSLSASVGDRVTITCRASQDISSALVWYQQKPGKAPKLLIYDASSLESGVPSRFSGSESGTDFTLTISSLQPEDFATYYCQQFNSYPLTFGGGTKVEIK
VH2: QVQLVQSGAEVKKPGASVKVSCETSGYTFTSYGISWVRQAPGHGLEWMGWISAYNGYTNYAQKLQGRVTMTTDTSTSTAYMELRSLRSDDTAVYYCARDLRGTNYFDYWGQGTLVTVSS
VL2: DIQMTQSPSSVSASVGDRVTITCRASQGISNWLAWFQHKPGKAPKLLIYAASSLLSGVPSRFSGSGSGTDFTLTISSLQPEDFATYYCQQANSFPITFGQGTRLEIK
For B1, the “activity compared to the combination of monovalent control antibodies” value [5] is listed as “superior activity”.
